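All cell lines were grown in 96-well plates and treated with compound for 48 hours. GI50 is the concentration that inhibits growth by half.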 Active and inactive are the calls of the source. Cut-off read from the data, not from the text of the source: active = GI50 up to about 1.1 µM and inactive = higher. Where a SMILES comes first, the peptide text is derived from it. The star is where a group is joined. Cbz = O=C(OCc1ccccc1)*; Boc = CC(C)(C)OC(=O)*; OSu = O=C1CCC(=O)N1O*; Bn = c1ccc(C*)cc1
What was measured:
Test in all cases: growth of human tumour cells (NCI), 48 h
COLO 205 = test system: COLO 205
SK-MEL-28 = test system: SK-MEL-28
OVCAR-3 = test system: OVCAR-3
SK-OV-3 = test system: SK-OV-3
NCI-H460 = test system: NCI-H460
U-251 = test system: U-251
786-0 = test system: 786-0
SW-620 = test system: SW-620
SK-MEL-2 = test system: SK-MEL-2
HCC 2998 = test system: HCC 2998
Hs-578T = test system: Hs-578T
SF-295 = test system: SF-295
HCT-15 = test system: HCT-15
NCI/ADR-RES = test system: NCI/ADR-RES
UACC-257 = test system: UACC-257
K562 = test system: K562
HCT-116 = test system: HCT-116
CCRF-CEM = test system: CCRF-CEM
M14 = test system: M14
MDA-N = test system: MDA-N
MDA-MB-435 = test system: MDA-MB-435
HT-29 = test system: HT-29
MDA-MB-231 = test system: MDA-MB-231
OVCAR-4 = test system: OVCAR-4
A549 = test system: A549
ACHN = test system: ACHN
UACC-62 = test system: UACC-62
MCF7 = test system: MCF7
NCI-H522 = test system: NCI-H522
HOP-92 = test system: HOP-92
SNB-19 = test system: SNB-19
HOP-62 = test system: HOP-62
BT-549 = test system: BT-549
IGROV-1 = test system: IGROV-1
SK-MEL-5 = test system: SK-MEL-5
UO-31 = test system: UO-31
SN12C = test system: SN12C
CAKI-1 = test system: CAKI-1
MOLT-4 = test system: MOLT-4
PC-3 = test system: PC-3
TK-10 = test system: TK-10
EKVX = test system: EKVX
OVCAR-5 = test system: OVCAR-5
RXF 393 = test system: RXF 393
LOX IMVI = test system: LOX IMVI
KM12 = test system: KM12
SNB-75 = test system: SNB-75
OVCAR-8 = test system: OVCAR-8
SF-539 = test system: SF-539
Malme-3M = test system: Malme-3M
NCI-H23 = test system: NCI-H23
A498 = test system: A498
NCI-H226 = test system: NCI-H226
DU-145 = test system: DU-145
SF-268 = test system: SF-268
RPMI-8226 = test system: RPMI-8226
HL-60 = test system: HL-60
SR = test system: SR

## CSCCCNC(=O)c1csc(-c2csc(CCNC(=O)CNC(=O)CNC(=O)CNC(=O)OC(C)(C)C)n2)n1
COLO 205
  GI50: > 100 µM (inactive)
SK-MEL-28
  GI50: > 100 µM (inactive)
OVCAR-3
  GI50: > 100 µM (inactive)
SK-OV-3
  GI50: > 100 µM (inactive)
NCI-H460
  GI50: > 100 µM (inactive)
U-251
  GI50: > 100 µM (inactive)
786-0
  GI50: > 100 µM (inactive)
SW-620
  GI50: > 100 µM (inactive)
SK-MEL-2
  GI50: > 100 µM (inactive)
HCC 2998
  GI50: > 100 µM (inactive)
Hs-578T
  GI50: > 100 µM (inactive)
SF-295
  GI50: > 100 µM (inactive)
HCT-15
  GI50: > 100 µM
NCI/ADR-RES
  GI50: > 100 µM (inactive)
UACC-257
  GI50: > 100 µM (inactive)
K562
  GI50: > 100 µM (inactive)
HCT-116
  GI50: > 100 µM (inactive)
CCRF-CEM
  GI50: > 100 µM (inactive)
M14
  GI50: > 100 µM (inactive)
MDA-N
  GI50: > 100 µM (inactive)
MDA-MB-435
  GI50: > 100 µM (inactive)
HT-29
  GI50: > 100 µM (inactive)
MDA-MB-231
  GI50: > 100 µM (inactive)
OVCAR-4
  GI50: > 100 µM (inactive)
A549
  GI50: > 100 µM (inactive)
ACHN
  GI50: > 100 µM (inactive)
UACC-62
  GI50: > 100 µM (inactive)
MCF7
  GI50: > 100 µM (inactive)
NCI-H522
  GI50: > 100 µM (inactive)
HOP-92
  GI50: > 100 µM (inactive)
SNB-19
  GI50: > 100 µM (inactive)
HOP-62
  GI50: > 100 µM (inactive)
BT-549
  GI50: > 100 µM (inactive)
IGROV-1
  GI50: > 100 µM (inactive)
SK-MEL-5
  GI50: > 100 µM (inactive)
UO-31
  GI50: > 100 µM (inactive)
SN12C
  GI50: > 100 µM (inactive)
CAKI-1
  GI50: > 100 µM (inactive)
MOLT-4
  GI50: > 100 µM (inactive)
PC-3
  GI50: > 100 µM (inactive)
TK-10
  GI50: > 100 µM (inactive)
EKVX
  GI50: > 100 µM (inactive)
OVCAR-5
  GI50: > 100 µM (inactive)
RXF 393
  GI50: > 100 µM (inactive)
LOX IMVI
  GI50: > 100 µM (inactive)
KM12
  GI50: > 100 µM (inactive)
SNB-75
  GI50: > 100 µM (inactive)
OVCAR-8
  GI50: > 100 µM (inactive)
SF-539
  GI50: > 100 µM (inactive)
Malme-3M
  GI50: > 100 µM (inactive)
NCI-H23
  GI50: > 100 µM (inactive)
A498
  GI50: > 100 µM (inactive)
NCI-H226
  GI50: > 100 µM (inactive)
DU-145
  GI50: > 100 µM (inactive)
SF-268
  GI50: > 100 µM (inactive)

## CC(C)(C)OC(=O)NC(Cc1ccc(OCc2ccccc2)cc1)C(=O)NC(CCCCNC(=O)OCc1ccccc1)C(=O)ON1C(=O)CCC1=O (stereo not given) (Boc-Tyr(Bn)-Lys(Cbz)-OSu; configuration not given here)
COLO 205
  GI50: 27 µM (inactive)
SK-MEL-28
  GI50: 15.8 µM (inactive)
NCI-H460
  GI50: 21.7 µM (inactive)
U-251
  GI50: 17 µM (inactive)
786-0
  GI50: 18.9 µM (inactive)
SW-620
  GI50: 20.7 µM (inactive)
SK-MEL-2
  GI50: 17.4 µM (inactive)
RPMI-8226
  GI50: 20 µM (inactive)
HCC 2998
  GI50: 16.5 µM (inactive)
Hs-578T
  GI50: 20.3 µM (inactive)
HCT-15
  GI50: 16.7 µM
UACC-257
  GI50: 34.3 µM (inactive)
K562
  GI50: 27 µM (inactive)
HCT-116
  GI50: 19.9 µM (inactive)
M14
  GI50: 19.4 µM (inactive)
MDA-N
  GI50: 15.7 µM (inactive)
HT-29
  GI50: 23.5 µM (inactive)
MDA-MB-231
  GI50: 22.3 µM (inactive)
A549
  GI50: 34.1 µM (inactive)
ACHN
  GI50: 20.7 µM (inactive)
UACC-62
  GI50: 18.2 µM (inactive)
HL-60
  GI50: 22 µM (inactive)
MCF7
  GI50: 19.8 µM (inactive)
HOP-92
  GI50: > 10 µM (inactive)
SNB-19
  GI50: 16.7 µM (inactive)
HOP-62
  GI50: 19.5 µM (inactive)
BT-549
  GI50: 21.6 µM (inactive)
IGROV-1
  GI50: 16.8 µM (inactive)
SK-MEL-5
  GI50: 22.4 µM (inactive)
UO-31
  GI50: 21.6 µM (inactive)
SN12C
  GI50: 16.7 µM (inactive)
MOLT-4
  GI50: 20 µM (inactive)
PC-3
  GI50: 22.1 µM (inactive)
TK-10
  GI50: 29.6 µM (inactive)
EKVX
  GI50: 42.6 µM (inactive)
OVCAR-5
  GI50: 31.3 µM (inactive)
RXF 393
  GI50: 16.9 µM (inactive)
KM12
  GI50: 23.9 µM (inactive)
SNB-75
  GI50: 21.8 µM (inactive)
SR
  GI50: 25.4 µM (inactive)
OVCAR-8
  GI50: 20.8 µM (inactive)
Malme-3M
  GI50: 23.1 µM (inactive)
NCI-H23
  GI50: 17.8 µM (inactive)
A498
  GI50: 48.3 µM (inactive)
NCI-H226
  GI50: 29.2 µM (inactive)

Source: ChEMBL document CHEMBL1201862, “PubChem BioAssay data set” (2004)
